What was measured:
active caspase-3 [1] = test: Kainic acid (KA)-induced neuronal apoptosis in mice (active caspase-3 immunoblotting); format: in vivo, mouse; conditions: 5 mg/kg oral
Method: C57BL/6J mice were orally administrated with 5 mg/kg of 4′-DMA-7,8-DHF and 7,8-DHF; at different time points, the mice were ip injected with 20 mg/kg KA for 2 h. The brain lysates were analyzed by immunoblotting with anti-p-TrkB, antiactive caspase-3 antibodies, respectively.
Male C57BL/6 mice aged of 60 days were orally injected with a single dose of 4′-DMA-7,8-DHF or 7,8-DHF ([…]). KA (20 mg/kg) (Sigma, MO) was i.p. injected. Animals were continually monitored for 2 h for the onset of seizure activity. At 0, 4 and 8 h following TrkB agonist treatment, the animals were sacrificed and the hippocampal section lysates were analyzed by immunoblotting with p-TrkB, active caspase-3 and total TrkB antibodies.
(§1) To quantitatively compare the anti-apoptotic activity by these two TrkB agonists, cortical neurons were pretreated with various concentrations of 4′-DMA-7,8-DHF and 7,8-DHF for 30 min, followed by […] for 16 h. Cell lysates were quantitatively analyzed with an active caspse-3 ELISA. […] To investigate whether these compounds exert any neuroprotective effects in animals, both compounds (5 mg/kg) were orally injected into mice. At 0, 2 h or 6 h, kainic acid (KA)(20 mg/kg) was administered intraperitoneally. At 2 h, mice were sacrificed and hippocampal regions were prepared. […] This kinetic spectrum tightly coupled to the TrkB activation status observed when treated with 7,8-DHF (FIG. 3C, right panel).

active caspase-3 [2] = test: Active caspase-3 ELISA in glutamate-treated cortical neurons; format: cell-based, rat; conditions: 30 min pretreatment, then glutamate 16 h; for caspase-3 activation after glutamate: 50 nM or higher
Method: 4′-Dimethylamino-7,8-dihydroxyflavone prevents neurons from apoptosis in a TrkB-dependent manner. Cortical neurons were prepared from E16 rat embryonic. The neurons were pretreated with different doses of compounds as indicated for 30 min, followed by 50 μM glutamate for 16 h. The cell lysates were analyzed by active caspase-3 ELISA.
as §1

Akt = Akt activation / p-Akt 473 ELISA in primary cortical neurons; format: cell-based, rat; conditions: 500 nM
Method: The cell lysates (20 μg/sample) from the neurons treated with various indicated drugs were analyzed by p-Akt ELISA. The quantitative p-Akt activity in ELISA correlated with TrkB activity. Results were expressed as mean (SEM(*P<0.05, compared with the vehicle control group, Student t test, n=3).
Phospho-Akt ELISA assay by the synthetic compounds in cortical neurons. Primary cortical cultures from […] rat embryos were treated with 500 nMof various 7,8-DHF derivatives. The cell lysates were analyzed by the ELISA (left panel) (*, P<0.05; ***, P<0.001 vs vehicle, Student's t test). Different doses of 4′-DMA-7,8-DHF and 7,8-DHF were incubated with primary cortical neurons for 15 min. The cell lysates (20 μg) were analyzed with p-Akt ELISA (right panel) (*, P<0.05; **, P<0.01; ***, P<0.001 vs control; one-way ANOVA: b, P<0.01; c, P<0.001 vs 7,8-DHF at same concentration, Student's t test). […]
7,8-dihydroxyflavone (7,8-DHF) is a small molecular TrkB agonist. […] The cell lysates were analyzed by immunoblotting. […]
To compare the TrkB activation by these synthetic compounds, primary cortical cultures were prepared. […] TrkB activation was monitored at different time points.
Additional compounds are listed as designated from a to m (FIG. 6A). […] The cell lysates were analyzed by immunoblotting. […] Moreover, p-Akt ELISA was monitored to quantitatively analyze the agonistic activities of these compounds.

TrkB F616A = target: T1, TrkB F616A (Mus musculus, UniProt P15209, F616A); test: Neuroprotection against KA in TrkB F616A knockin mice with or without 1NMPP1; format: in vivo; conditions: for KA-induced caspase-3 activation in TrkB F616A mice: 5 mg/kg oral 4 h before KA 20 mg/kg; for KA-induced caspase-3 activation in TrkB F616A mice / TrkB F616A activation (phosphorylation) in knockin mice: without 1NMPP1; for protective effect against KA in F616A mice after 1NMPP1 pretreatment: 5 mg/kg oral 4 h before KA, 1NMPP1 in drinking water; for TrkB phosphorylation in F616A mice after 1NMPP1 pretreatment / TrkB F616A activation (phosphorylation) in knockin mice: 5 mg/kg oral
T1 construct: from tissue; host or cells: TrkB F616A knock-in mice (brain; whole animal in the forced swim test)
T1 sequence (P15209 32-821 F616A): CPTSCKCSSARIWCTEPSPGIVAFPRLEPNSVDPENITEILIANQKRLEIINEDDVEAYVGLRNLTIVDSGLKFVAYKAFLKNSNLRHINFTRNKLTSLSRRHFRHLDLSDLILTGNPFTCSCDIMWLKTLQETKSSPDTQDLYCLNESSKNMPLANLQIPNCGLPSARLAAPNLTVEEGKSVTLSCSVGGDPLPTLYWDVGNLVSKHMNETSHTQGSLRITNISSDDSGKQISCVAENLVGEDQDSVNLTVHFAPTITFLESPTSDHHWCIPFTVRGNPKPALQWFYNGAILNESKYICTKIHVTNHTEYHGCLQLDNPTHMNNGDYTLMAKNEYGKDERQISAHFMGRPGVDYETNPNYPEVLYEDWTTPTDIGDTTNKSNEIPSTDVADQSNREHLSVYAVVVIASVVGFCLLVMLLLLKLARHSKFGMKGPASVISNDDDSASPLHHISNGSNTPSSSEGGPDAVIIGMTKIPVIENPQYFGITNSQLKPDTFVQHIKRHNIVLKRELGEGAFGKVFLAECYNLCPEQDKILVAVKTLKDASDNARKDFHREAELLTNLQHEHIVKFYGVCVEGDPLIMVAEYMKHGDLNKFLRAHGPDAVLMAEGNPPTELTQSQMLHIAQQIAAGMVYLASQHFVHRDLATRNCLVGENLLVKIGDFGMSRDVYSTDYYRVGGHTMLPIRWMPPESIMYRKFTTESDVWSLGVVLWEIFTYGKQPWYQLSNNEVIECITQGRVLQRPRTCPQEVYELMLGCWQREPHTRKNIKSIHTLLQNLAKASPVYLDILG
Method: 4′-DMA-7,8-DHF and 7,8-DHF suppressed KA-induced caspase-3 activation in TrkB F616A mutant knockin mice, which cannot be blocked by 1NMPP1 (top panel).
TrkB F616A knockin mice (2-3 months old) were fed with 1NMPP1 (25 mM) in drinking water one day before pharmacological reagent treatment. Next day, the mice were orally injected with 7,8-DHF or 4′-DMA-7,8-DHF (5 mg/kg) 4 h before kainic acid (20 mg/kg). The control mice were injected with saline, 1NMPP1, kainic acid alone or administrated 7,8-DHF or 4′-DMA-7,8-DHF 4 h before kainic acid. In 4 days, the mice were sacrificed and brains were homogenated and ultracentrafuged. The supernatant ([…]) was employed for SDS-PAGE and immunoblotting analysis with indicated antibodies, respectively.

Row | SMILES | KA-induced neuronal apoptosis over time after dosing (active caspase-3 [1]; KA 20 mg/kg i.p. at 0, 2 h or 6 h, hippocampal lysates) | inhibition of caspase-3 activation after glutamate (active caspase-3 [2]; 10 nM) | caspase-3 activation after glutamate (active caspase-3 [2]) | Akt activation pattern over time (Akt; primary neurons, time course) | KA-induced caspase-3 activation in TrkB F616A mice (TrkB F616A) | protective effect against KA in F616A mice after 1NMPP1 pretreatment (TrkB F616A) | TrkB phosphorylation in F616A mice after 1NMPP1 pretreatment (TrkB F616A) | TrkB F616A activation (phosphorylation) in knockin mice (TrkB F616A) | KA-induced caspase-3 activation at 4 h (active caspase-3 [1]; KA 20 mg/kg i.p., 4 h) | active caspase-3 at 8 h (active caspase-3 [1]; KA 20 mg/kg i.p., 8 h) | agonistic activity by p-Akt ELISA in neurons (Akt; 20 min, primary rat cortical neurons (13 DIV))
1 | CN(C)c1ccc(-c2cc(=O)c3ccc(O)c(O)c3o2)cc1 [4′-DMA-7,8-DHF, 4′-dimethylamino-7,8-dihydroxyflavone] | gradually decreased over time | more robust inhibitory effect than 7,8-DHF | substantially blocked caspase-3 activation | temporally coupled to TrkB activation | markedly diminished | abolished | notably blocked by 1NMPP1 pretreatment | strongly activated |  |  | 
2 | O=c1cc(-c2ccccc2)oc2c(O)c(O)ccc12 [7,8-DHF, 7,8-dihydroxyflavone, reference compound] |  |  | substantially blocked caspase-3 activation |  | markedly diminished | abolished | notably blocked by 1NMPP1 pretreatment | strongly activated | reduced | slightly increased | 
3 | CN(C)c1ccc(-c2cc(=O)c3ccc4nc[nH]c4c3o2)cc1 [compound m, 8-(4-(dimethylamino)phenyl)chromeno[7,8-d]imidazol-6(1H)-one] |  |  |  |  |  |  |  |  |  |  | possesses the strongest effect in activating TrkB receptor
